Measured values reported in paper PMC7932537, “Quantitative profiling of protease specificity” (PLoS Computational Biology, 2021).

How the values were obtained:
MMP-9 = assay: Substrate phage display with NGS: relative probability (RP) of P3-P1' tetramer clusters; assay type: biochemical, human; details: for corresponding MMP9 relative probability (RP): MMP2 tetramers from unique substrates, RP of same tetramer for MMP9; for normalized RP - MMP9: normalized RP of matching tetramer
MMP-2 = assay: as above; assay type: biochemical, human; details: for avg_RP: MMP2 - no binning; for relative probability (RP) of matching tetramer: P3-P1' tetramer matching the MS detected MMP2 cleavage sequence, RP_above_4.5; for MMP2 relative probability (RP): MMP2 tetramers from unique substrates, unrounded values; for normalized RP - MMP2: normalized RP of matching tetramer
[1] = RP of the P3-P1' tetramer, MMP9 substrate phage display/NGS, tetramers of physiologic MEROPS substrates common to MMP2 and MMP9
[2] = average relative probability of the tetramer, redundant tetramers averaged out
[3] = RP of the P3-P1' tetramer, MMP2 substrate phage display/NGS, tetramers of physiologic MEROPS substrates common to MMP2 and MMP9
[4] = MMP9, RP of matching P3-P1' tetramer, common set of MMP2-9 selectome
[5] = MMP2, RP of matching P3-P1' tetramer, common set of MMP2-9 selectome, RP above KL threshold
[6] = MMP9, RP of the P3-P1' tetramer contained in the hexamer substrate (substrate phage display, NGS)
[7] = RP of the P3-P1' tetramer cluster contained in the hexamer, 200 nM MMP-2, 2 h, 37°C, two rounds of selection
[8] = RP according to MMP9, P3-P1' tetramer of unique physiologic MMP9 substrates from MEROPS
[9] = RP according to MMP2, P3-P1' tetramer of unique physiologic MMP2 substrates from MEROPS
[10] = MMP9, RP of the P3-P1' tetramer matching the MS detected cleavage, RP above 4.7, substrate phage display with NGS
[11] = RP of matching tetramer, common MMP2-9 selectome, RP above KL threshold
[12] = RP of matching tetramer, common MMP2-9 selectome
[13] = RP of matching tetramer, unique part of MMP2 selectome
[14] = RP of matching tetramer, unique part of MMP2 selectome, RP above KL threshold

Substance: AKAQ
- MMP9 relative probability (RP) (MMP-9; MMP9 tetramers from unique substrates, unrounded values): 0.8414
- corresponding MMP2 relative probability (RP) (MMP-2; MMP9 tetramers from unique substrates, RP of same tetramer for MMP2): 5.884

Substance: PTGL
- relative probability (RP) (acc.to MMP9) (MMP-9; [1]): 39.89
- avg_RP (MMP-2; [2]): 33.1098
- relative probability (RP) (acc.to MMP2) (MMP-2; [3]): 33.11

Substance: IAFL
- relative probability (RP) (acc.to MMP9) (MMP-9; [4]): 10.97
- relative probability (RP) (acc.to MMP2) (MMP-2; [5]): 22.55
- relative probability (RP) of matching tetramer (MMP-2): 22.55

Substance: PRPL [P3-P1' tetramer cluster]
- relative probability (RP) (MMP-9; tetramer projected onto MMP-9 cleavage sites determined by Prudova et al. (2010)): 46.79
- avg_RP (MMP-2; average relative probability of the P3-P1' tetramer, redundant tetramers have been averaged out): 34.3303

Substance: GEPFEL
- relative probability (RP) (MMP-9; [6]): 44.9497
- relative probability (RP) (MMP-2; [7]): 15.9169

Substance: LSKI
- corresponding MMP9 relative probability (RP) (MMP-9): 0.06898
- Relative probability (RP) rank (MMP-9; [8]): 65498
- relative probability (RP) (MMP-9; [8]): 0.07
- relative probability (RP) (acc.to MMP9) (MMP-9; [1]): 0.07
- MMP2 relative probability (RP) (MMP-2): 4.524
- Relative probability (RP) rank (MMP-2; [9]): 7909
- relative probability (RP) (MMP-2; [9]): 4.52
- relative probability (RP) (acc.to MMP2) (MMP-2; [3]): 4.52

Substance: PRAV
- relative probability (RP) (acc.to MMP9) (MMP-9; [4]): 40.85
- relative probability (RP) (MMP-9; [10]): 40.85
- relative probability (RP) (acc.to MMP9) (MMP-9; [11]): 40.85
- avg_RP (MMP-2; [2]): 28.3444
- relative probability (RP) (acc.to MMP2) (MMP-2; [5]): 28.34
- relative probability (RP) of matching tetramer (MMP-2): 28.34
- relative probability (RP) (acc.to MMP2) (MMP-2; [12]): 28.34

Substance: LAGL [P3-P1' tetramer cluster]
- corresponding MMP9 relative probability (RP) (MMP-9): 1.413
- MMP2 relative probability (RP) (MMP-2): 32.2383
- Relative probability (RP) rank (MMP-2; [9]): 174
- relative probability (RP) (MMP-2; [9]): 32.24
- relative_probability (MMP-2; tetramer clusters unique to the MMP-2 selectome, MMP-2 RP): 32.24

Substance: PYGL
- relative probability (RP) (acc.to MMP9) (MMP-9; [1]): 49.41
- avg_RP (MMP-2; [2]): 32.9966
- relative probability (RP) (acc.to MMP2) (MMP-2; [3]): 33

Substance: PFGV
- relative probability (RP) (MMP-9; [10]): 38.95
- relative probability (RP) (acc.to MMP9) (MMP-9; [11]): 38.95
- relative probability (RP) (acc.to MMP2) (MMP-2; [12]): 6.82

Substance: TLGL
- relative probability (RP) (acc.to MMP9) (MMP-9; [4]): 9.79
- relative probability (RP) (MMP-9; [10]): 9.79
- relative probability (RP) (acc.to MMP9) (MMP-9; [11]): 9.79
- relative probability (RP) (acc.to MMP2) (MMP-2; [5]): 6
- relative probability (RP) of matching tetramer (MMP-2): 6
- relative probability (RP) (acc.to MMP2) (MMP-2; [12]): 6

Substance: VGEY
- corresponding MMP9 relative probability (RP) (MMP-9): 0.1188
- MMP2 relative probability (RP) (MMP-2): 13.6759
- Relative probability (RP) rank (MMP-2; [9]): 3547
- relative probability (RP) (MMP-2; [9]): 13.68

Substance: SIPLPL
- relative probability (RP) (MMP-9; [6]): 49.0268
- relative probability (RP) (MMP-2; [7]): 35.0814

Substance: PGPAGQ
- relative probability (RP) (MMP-9; [6]): 28.6679
- relative probability (RP) (MMP-2; [7]): 28.0249

Substance: GPAGIR
- relative probability (RP) (MMP-9; [6]): 45.1083
- relative probability (RP) (MMP-2; [7]): 33.3207

Substance: LAYL
- relative probability (RP) (acc.to MMP9) (MMP-9; [13]): 2.51
- normalized RP - MMP9 (MMP-9; unique part of MMP2 selectome): 0.04792
- relative probability (RP) of matching tetramer (MMP-2): 25.34
- relative probability (RP) (acc.to MMP2) (MMP-2; [14]): 25.34
- normalized RP - MMP2 (MMP-2; unique part of MMP2 selectome): 0.6939

Substance: KSPLRQ
- relative probability (RP) (MMP-9; [6]): 29.0862
- relative probability (RP) (MMP-2; [7]): 11.8624

Substance: LRAV
- relative probability (RP) (MMP-9; [10]): 11.9
- relative probability (RP) (acc.to MMP9) (MMP-9; [11]): 11.9
- relative probability (RP) (acc.to MMP2) (MMP-2; [12]): 11.96

Substance: TPAAMT
- relative probability (RP) (MMP-9; [6]): 48.1518
- relative probability (RP) (MMP-2; [7]): 33.3115

Substance: PVNV
- relative probability (RP) (MMP-9; [10]): 24.66
- relative probability (RP) (acc.to MMP9) (MMP-9; [11]): 24.66
- relative probability (RP) (acc.to MMP2) (MMP-2; [12]): 19.63

Substance: IGNM
- relative probability (RP) (acc.to MMP9) (MMP-9; [4]): 9.58
- relative probability (RP) (acc.to MMP2) (MMP-2; [5]): 29.21
- relative probability (RP) of matching tetramer (MMP-2): 29.21

Substance: PQLL
- relative probability (RP) (MMP-9; [10]): 32.66
- relative probability (RP) (acc.to MMP9) (MMP-9; [11]): 32.66
- avg_RP (MMP-2; average relative probability (RP) of the P3-P1' tetramer, redundant tetramers have been averaged out): 22.6078
- relative probability (RP) (acc.to MMP2) (MMP-2; [12]): 22.61

Substance: APGL
- corresponding MMP9 relative probability (RP) (MMP-9): 3.776
- Relative probability (RP) rank (MMP-9; [8]): 6833
- relative probability (RP) (MMP-9; [8]): 3.78
- relative probability (RP) (acc.to MMP9) (MMP-9; [1]): 3.78
- MMP2 relative probability (RP) (MMP-2): 7.849
- Relative probability (RP) rank (MMP-2; [9]): 5899
- relative probability (RP) (MMP-2; [9]): 7.85
- relative probability (RP) (acc.to MMP2) (MMP-2; [3]): 7.85

Substance: PRPFHH
- relative probability (RP) (MMP-9; [6]): 43.6397
- relative probability (RP) (MMP-2; [7]): 32.5323

Substance: PGPIGI
- relative probability (RP) (MMP-9; [6]): 46.0584
- relative probability (RP) (MMP-2; [7]): 31.281

Substance: IDNL
- relative probability (RP) (acc.to MMP9) (MMP-9; [13]): 0.5
- normalized RP - MMP9 (MMP-9; unique part of MMP2 selectome): 0.009546
- relative probability (RP) of matching tetramer (MMP-2): 4.88
- relative probability (RP) (acc.to MMP2) (MMP-2; [14]): 4.88
- normalized RP - MMP2 (MMP-2; unique part of MMP2 selectome): 0.1336

Substance: PVEL
- relative probability (RP) (acc.to MMP9) (MMP-9; [1]): 35.1
- relative probability (RP) (acc.to MMP2) (MMP-2; [3]): 25.47

Substance: GPALSY
- relative probability (RP) (MMP-9; [6]): 25.6531
- relative probability (RP) (MMP-2; [7]): 14.6475

Substance: PEPAAL
- relative probability (RP) (MMP-9; [6]): 47.6262
- relative probability (RP) (MMP-2; [7]): 35.8015

Substance: FSPL
- corresponding MMP9 relative probability (RP) (MMP-9): 1.083
- MMP2 relative probability (RP) (MMP-2): 14.7799
- Relative probability (RP) rank (MMP-2; [9]): 3161
- relative probability (RP) (MMP-2; [9]): 14.78
